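Values below derive from 48-hour exposures of cells grown in 96-well plates, with endpoints linearly interpolated between the two concentrations bracketing the appropriate inhibition level. Abbreviation: GI50, concentration required for 50% inhibition of growth.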 The source made the active and inactive calls. Cut-off read from the data, not from the text of the source: active = GI50 up to about 1.1 µM and inactive = higher.
What was measured:
Experiment in all cases: NCI anticancer screen, dose series, 48 h
[1] = system: DMS-273
[2] = system: HL-60
[3] = system: SN12C
[4] = system: UACC-62
[5] = system: SF-268
[6] = system: SNB-75
[7] = system: HT-29
[8] = system: NCI-H522
[9] = system: HCT-116
[10] = system: SNB-78
[11] = system: SK-MEL-28
[12] = system: NCI-H23
[13] = system: KM-20L2
[14] = system: SF-295
[15] = system: HOP-92
[16] = system: COLO 205
[17] = system: OVCAR-8
[18] = system: SNB-19
[19] = system: NCI-H460
[20] = system: OVCAR-5
[21] = system: RPMI-8226
[22] = system: MOLT-4
[23] = system: EKVX
[24] = system: MCF7
[25] = system: HCC 2998
[26] = system: A498
[27] = system: SK-MEL-5
[28] = system: NCI-H226
[29] = system: KM12
[30] = system: CAKI-1
[31] = system: HOP-18
[32] = system: RXF 393
[33] = system: CCRF-CEM
[34] = system: DLD-1
[35] = system: OVCAR-4
[36] = system: HOP-62
[37] = system: Malme-3M
[38] = system: LOX IMVI
[39] = system: HCT-15
[40] = system: UACC-257
[41] = system: M19-MEL
[42] = system: UO-31
[43] = system: NCI/ADR-RES
[44] = system: XF498
[45] = system: SW-620
[46] = system: SK-MEL-2
[47] = system: SF-539
[48] = system: U-251
[49] = system: IGROV-1
[50] = system: K562
[51] = system: OVCAR-3
[52] = system: SK-OV-3
[53] = system: A549
[54] = system: TK-10
[55] = system: M14
[56] = system: 786-0
[57] = system: LXFL 529
[58] = system: ACHN
[59] = system: DMS-114

Q: `CCCCC1(C2c3ccccc3Oc3ccccc32)C(=O)N(c2ccccc2)N(c2ccccc2)C1=O` was tested. Which GI50 [1] did it give?
A: 47 µM (inactive)

Q: And the GI50 [2]?
A: 21.9 µM (inactive)

Q: And the GI50 [3]?
A: > 61.9 µM (inactive)

Q: What about the GI50 [4] of the same molecule?
A: > 89.3 µM (inactive)

Q: And the GI50 [5]?
A: > 79.1 µM (inactive)

Q: What about the GI50 [6] of the same molecule?
A: 86.7 µM (inactive)

Q: What about the GI50 [7] of the same molecule?
A: 77.1 µM (inactive)

Q: What about the GI50 [8] of the same molecule?
A: 3.79 µM (inactive)

Q: And the GI50 [9]?
A: 41.3 µM (inactive)

Q: What about the GI50 [10] of the same molecule?
A: 37.1 µM (inactive)

Q: And the GI50 [11]?
A: > 100 µM (inactive)

Q: And the GI50 [12]?
A: 32.1 µM (inactive)

Q: What about the GI50 [13] of the same molecule?
A: 22.5 µM (inactive)

Q: And the GI50 [14]?
A: > 92.7 µM (inactive)

Q: What about the GI50 [15] of the same molecule?
A: 97.5 µM (inactive)

Q: And the GI50 [16]?
A: > 100 µM (inactive)

Q: And the GI50 [17]?
A: > 100 µM (inactive)

Q: What about the GI50 [18] of the same molecule?
A: 82 µM (inactive)

Q: And the GI50 [19]?
A: 47.8 µM (inactive)

Q: And the GI50 [20]?
A: > 100 µM (inactive)

Q: And the GI50 [21]?
A: 27.7 µM (inactive)

Q: What about the GI50 [22] of the same molecule?
A: > 10 µM (inactive)

Q: And the GI50 [23]?
A: > 100 µM (inactive)

Q: What about the GI50 [24] of the same molecule?
A: 55 µM (inactive)

Q: And the GI50 [25]?
A: > 41.1 µM (inactive)

Q: What about the GI50 [26] of the same molecule?
A: 64.9 µM (inactive)

Q: And the GI50 [27]?
A: 34.3 µM (inactive)

Q: And the GI50 [28]?
A: > 80.9 µM (inactive)

Q: And the GI50 [29]?
A: 63.5 µM (inactive)

Q: And the GI50 [30]?
A: 11.6 µM (inactive)

Q: What about the GI50 [31] of the same molecule?
A: > 100 µM (inactive)

Q: What about the GI50 [32] of the same molecule?
A: 19.9 µM (inactive)

Q: And the GI50 [33]?
A: 22.5 µM (inactive)

Q: And the GI50 [34]?
A: 25.8 µM (inactive)

Q: And the GI50 [35]?
A: 60.1 µM (inactive)

Q: And the GI50 [36]?
A: > 100 µM (inactive)

Q: And the GI50 [37]?
A: > 100 µM (inactive)

Q: And the GI50 [38]?
A: 41 µM (inactive)

Q: What about the GI50 [39] of the same molecule?
A: 41.3 µM

Q: And the GI50 [40]?
A: 29.4 µM (inactive)

Q: What about the GI50 [41] of the same molecule?
A: > 100 µM (inactive)

Q: And the GI50 [42]?
A: > 83.2 µM (inactive)

Q: And the GI50 [43]?
A: 62.2 µM (inactive)

Q: What about the GI50 [44] of the same molecule?
A: > 31.9 µM (inactive)

Q: What about the GI50 [45] of the same molecule?
A: 56.6 µM (inactive)

Q: What about the GI50 [46] of the same molecule?
A: > 100 µM (inactive)

Q: What about the GI50 [47] of the same molecule?
A: > 100 µM (inactive)

Q: What about the GI50 [48] of the same molecule?
A: 31.3 µM (inactive)

Q: What about the GI50 [49] of the same molecule?
A: > 72.3 µM (inactive)

Q: And the GI50 [50]?
A: 18.9 µM (inactive)

Q: And the GI50 [51]?
A: 42.3 µM (inactive)

Q: And the GI50 [52]?
A: > 100 µM (inactive)

Q: And the GI50 [53]?
A: 39.1 µM (inactive)

Q: Which results are given for `N#C/C(=C\c1ccc(CP(=O)(O)O)cc1)C(N)=O`?
A: GI50 [1]: > 100 µM (inactive); GI50 [2]: > 100 µM (inactive); GI50 [3]: > 100 µM (inactive); GI50 [4]: > 100 µM (inactive); GI50 [5]: > 100 µM (inactive); GI50 [7]: > 100 µM (inactive); GI50 [54]: > 100 µM (inactive); GI50 [8]: > 100 µM (inactive); GI50 [9]: > 100 µM (inactive); GI50 [55]: > 100 µM (inactive); GI50 [11]: > 100 µM (inactive); GI50 [12]: > 100 µM (inactive); GI50 [13]: > 100 µM (inactive); GI50 [14]: > 100 µM (inactive); GI50 [15]: > 100 µM (inactive); GI50 [16]: > 100 µM (inactive); GI50 [17]: > 100 µM (inactive); GI50 [18]: > 100 µM (inactive); GI50 [19]: > 100 µM (inactive); GI50 [20]: > 100 µM (inactive); GI50 [21]: > 100 µM (inactive); GI50 [22]: > 100 µM (inactive); GI50 [23]: > 100 µM (inactive); GI50 [56]: > 100 µM (inactive); GI50 [57]: > 100 µM (inactive); GI50 [25]: > 100 µM (inactive); GI50 [26]: > 100 µM (inactive); GI50 [58]: > 100 µM (inactive); GI50 [27]: > 100 µM (inactive); GI50 [59]: > 100 µM (inactive); GI50 [28]: > 100 µM (inactive); GI50 [29]: > 100 µM (inactive); GI50 [30]: > 100 µM (inactive); GI50 [31]: > 100 µM (inactive); GI50 [33]: > 100 µM (inactive); GI50 [34]: > 100 µM (inactive); GI50 [35]: > 100 µM (inactive); GI50 [36]: > 100 µM (inactive); GI50 [37]: > 100 µM (inactive); GI50 [38]: > 100 µM (inactive); GI50 [39]: > 100 µM; GI50 [40]: > 100 µM (inactive); GI50 [41]: > 100 µM (inactive); GI50 [42]: > 100 µM (inactive); GI50 [44]: > 100 µM (inactive); GI50 [45]: > 100 µM (inactive); GI50 [46]: > 100 µM (inactive); GI50 [47]: > 100 µM (inactive); GI50 [48]: > 100 µM (inactive); GI50 [49]: > 100 µM (inactive); GI50 [50]: > 100 µM (inactive); GI50 [51]: > 100 µM (inactive); GI50 [52]: > 100 µM (inactive); GI50 [53]: > 100 µM (inactive)

Reference: ChEMBL document CHEMBL1201862, “PubChem BioAssay data set” (2004)
